The results in this text go back to US6747056B2, “K99-5041 substance and production thereof” (The Kitasato Institute, priority 2002, dated 2004).

The target in series [1] is T1, Lanosterol synthase of human origin (Homo sapiens, UniProt P48449).
T1 construct: made in house; host or cells: lanosterol synthase deficient yeast GIL77 (GAPDH promoter); cell-free extract
T1 sequence (P48449 1-732): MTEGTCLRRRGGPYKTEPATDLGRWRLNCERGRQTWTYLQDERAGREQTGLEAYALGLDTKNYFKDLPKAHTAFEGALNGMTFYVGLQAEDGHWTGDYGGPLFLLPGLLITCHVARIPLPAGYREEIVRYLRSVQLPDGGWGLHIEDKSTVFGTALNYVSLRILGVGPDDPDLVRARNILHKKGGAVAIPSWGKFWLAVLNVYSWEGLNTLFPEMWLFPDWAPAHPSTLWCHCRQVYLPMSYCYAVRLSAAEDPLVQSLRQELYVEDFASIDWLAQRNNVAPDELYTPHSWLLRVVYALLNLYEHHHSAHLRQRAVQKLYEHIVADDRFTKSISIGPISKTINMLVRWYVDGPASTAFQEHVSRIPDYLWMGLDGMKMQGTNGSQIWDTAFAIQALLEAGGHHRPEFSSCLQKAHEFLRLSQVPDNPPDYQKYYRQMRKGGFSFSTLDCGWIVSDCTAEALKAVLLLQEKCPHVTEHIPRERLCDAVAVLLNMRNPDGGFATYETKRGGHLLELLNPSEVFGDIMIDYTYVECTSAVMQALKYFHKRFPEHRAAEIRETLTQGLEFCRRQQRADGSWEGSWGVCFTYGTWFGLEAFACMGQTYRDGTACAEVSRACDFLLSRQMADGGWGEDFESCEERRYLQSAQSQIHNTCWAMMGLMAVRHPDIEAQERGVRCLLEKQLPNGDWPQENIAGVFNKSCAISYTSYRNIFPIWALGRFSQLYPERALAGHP
Kind of series: Inhibitory action against lanosterol synthase of human origin (cell-free extract of transformed yeast, [14C](3S)-2,3-oxidosqualene substrate). The following applies: human lanosterol synthase expressed in yeast GIL77, cell-free extract 1 mg protein; 37° C., 60 minutes; substrate 0.17-0.42 μM; read-out: 50% inhibition concentration (IC50) for lanosterol synthase activity. In kind it is biochemical. Here is the method: (1) Inhibitory Action Against Lanosterol Synthase of Human Origin
Enzyme origin used is as follows. […] The thus obtained cell-free extract derived from transformed yeast was used.
The above transformed yeast was homogenized in buffer A [0.1 M potassium-phosphate buffer solution (pH 7.4), 0.45 M sucrose, 1 mM EDTA and 1 mM dithiothreitol] in the presence of acid treated glass beads using Waring blender [Type 500ACD, Sakuma Seisakusho Co., Japan]. Supernatant obtained by centrifugation, 8600×g, was prepared to make protein concentration of 10 mg/ml by adding the buffer A hereinabove to prepare the cell-free extract.
Assay of lanosterol synthase was performed as follows.
Subsequently, 6% potassium hydroxide/ethanol was added thereto to terminate the reaction, and the mixture was saponificated by incubating at 37° C. for 10 minutes, added cyclohexane 2 ml and stirred well. The cyclohexane layer 1.6 ml was dried up, spotted on TLC plate [silica gel plate (with concentration zone), Merck Inc., U.S.A., thickness 0.25 mm: Art. […] Next, amounts of unreacted [^14C](3S)-2,3-oxidosqualene and generated [^14C]lanosterol were quantitatively assayed using the photo image analyzer BAS-1500 (Fuji Photo Film Co., Japan) to calculate inhibition rate of lanosterol synthesis.

A short description of the next series: Solubility in solvent. The format is physicochemical. Conditions: for Solubility in solvent: organic solvents: methanol, ethanol, acetonitrile, ethyl acetate, chloroform and dimethyl sulfoxide.
Series [2] in a line: Grouping for acidic, neutral and basic. The format is physicochemical.

Regarding `CCCCCCCCCCCCCCCC/C=C1\CCN=C1C` [K99-5041-C2x substance], in series [1], the IC50 is 18 µM. Besides, in “Solubility in solvent”, the “Solubility in solvent: organic solvents” value is recorded as “soluble” and the “Solubility in solvent: water” value is listed as “insoluble”. Also, in series [2], the “Grouping for acidic, neutral and basic” value is given as “Weak basic substance”.
On to `CC1=NCC/C1=C\CCCCCCCCCCCCCC(C)C` [K99-5041-C1x substance], for which the IC50 in series [1] was 15 µM. Besides, in “Solubility in solvent”, the “Solubility in solvent: organic solvents” value is “soluble” and the “Solubility in solvent: water” value was “insoluble”. Moreover, the “Grouping for acidic, neutral and basic” value in series [2] was “Weak basic substance”.
